Reference: ChEMBL document CHEMBL3301361, “Experimental in vitro DMPK and physicochemical data on a set of publicly disclosed compounds”
In brackets after ≈: the same amount, converted by molar mass.

Experiment: physchem
Details: pH 7.4 buffer

Structure (SMILES) | solubility thermodynamic [µM]
Cn1cc(C2=C(c3cccc(NCC(O)CO)c3)C(=O)NC2=O)c2cc(F)ccc21 (stereo unspecified) | 4.4 (≈ 1.8 µg/mL)
O=C(c1ccc(F)cc1)C1CCN(C(=O)c2cc(F)cc(F)c2)CC1 | 6 (≈ 2.08 µg/mL)
Cc1cccc2c3cc(NC(=O)N4CCOCC4)ccc3n(C(C)C)c12 | 5.1 (≈ 1.79 µg/mL)
CN(C)CCCN(C)c1nc2cc(Cl)c(Cl)cc2nc1/C=C/c1ccccc1 | 5.8 (≈ 2.41 µg/mL)
Nc1ncc(-c2cnn(CCO)c2)cc1-c1nc2ccccc2o1 | 3.1 (≈ 0.996 µg/mL)
CN(c1ccnc(Nc2cccc(S(C)(=O)=O)c2)n1)c1c(Cl)ccc2c1OCO2 | 3.5 (≈ 1.52 µg/mL)
COc1cc2ncnc(Nc3ccc(Br)cc3F)c2cc1OC | 6.8 (≈ 2.57 µg/mL)
COc1ccc2c(c1)Sc1ccccc1N2 | 2.4 (≈ 0.55 µg/mL)
O=S(=O)(Nc1ccccn1)c1ccc(C2CCCCC2)cc1 | 2.8 (≈ 0.886 µg/mL)
CCn1c2ccccc2c2cc(NC(=O)c3cc(C)on3)ccc21 | 2.5 (≈ 0.798 µg/mL)
O=C(NCCSCc1c(F)cccc1Cl)Nc1ccccc1 | 5.1 (≈ 1.73 µg/mL)
COc1ccc(NC(=O)c2cccn(CC=C(C)C)c2=O)cc1 | 7.2 (≈ 2.25 µg/mL)
Cc1ccc(-c2nnc(-c3ccccc3)o2)cc1 | 6.2 (≈ 1.46 µg/mL)
c1ccc(CSc2nnc(-c3ccco3)c(-c3ccco3)n2)cc1 | 5.2 (≈ 1.74 µg/mL)
COc1ccc([C@H](CC(=O)O)N2CCN(CCCc3ccc4c(n3)NCCC4)C2=O)cn1 | 2.5 (≈ 1.1 µg/mL)
CCN1N=C(c2ccccc2)Cn2c1nc1ccccc12 | 6.9 (≈ 1.91 µg/mL)
CCOC(=O)Cc1csc(NC(=O)Nc2ccc(Cl)cc2)n1 | 2.6 (≈ 0.883 µg/mL)
COC1=C(c2ccccc2)C(=O)c2ccccc2C1=O | 8.1 (≈ 2.14 µg/mL)
CN(C(=O)c1ccco1)c1nnc(C23CC4CC(CC(C4)C2)C3)s1 | 3 (≈ 1.03 µg/mL)
O=S(=O)(NCc1cc(-c2ccccc2Cl)no1)c1ccc(Cl)cc1 | 3.1 (≈ 1.19 µg/mL)
O=S(=O)(c1ccc(N2CCC(c3ccc(Cl)cc3)=N2)cc1)N(CCO)CCO | 2.2 (≈ 0.933 µg/mL)
O=S(=O)(Cc1cc(-c2ccccc2)no1)c1ccccc1 | 6.6 (≈ 1.98 µg/mL)
Oc1cc(-c2ccccc2)nc2ccc(Cl)cc12 | 5.9 (≈ 1.51 µg/mL)
CC(=O)Nc1nc(-c2ccc(Br)s2)cs1 | 2.2 (≈ 0.667 µg/mL)

Structure (SMILES) | solubility thermodynamic [µM]
CCOc1ccccc1C(=O)N1CCC(C(=O)c2ccc(F)cc2)CC1 | 5.8 (≈ 2.06 µg/mL)
O=C(c1ccc(F)cc1)C1CCN(C(=O)Nc2ccc(F)cc2)CC1 | 4.5 (≈ 1.55 µg/mL)
Cc1ccc(C)c(N(C)c2ccnc(Nc3cc(N4CCOCC4)cc(N4CCOCC4)c3)n2)c1 | 5.9 (≈ 2.8 µg/mL)
CN(c1ccc(Cl)c(CO)c1)c1ccnc(Nc2cc(N3CCOCC3)cc(N3CCOCC3)c2)n1 | 3.1 (≈ 1.58 µg/mL)
COc1cc(N2CCNC(=O)C2)ccc1Nc1ncc(Cl)c(-c2cnc3ccccn23)n1 | 4.9 (≈ 2.2 µg/mL)
COc1cc(N2CCCN(C(C)=O)CC2)ccc1Nc1ncc(Cl)c(-c2cnc3ccccn23)n1 | 2.4 (≈ 1.18 µg/mL)
COc1cc(N2CC3COCC(C2)N3)ccc1Nc1ncc(Cl)c(-c2cnc3ccccn23)n1 | 2.6 (≈ 1.24 µg/mL)
COc1cc(N2CCN(CC(=O)N(C)C)CC2)ccc1Nc1ncc(Cl)c(-c2cnc3ccccn23)n1 | 5 (≈ 2.61 µg/mL)
COc1cc(N2CCN(C(C)=O)CC2)ccc1Nc1ncc(Cl)c(-c2cnc3c(F)cccn23)n1 | 2.8 (≈ 1.39 µg/mL)
O=C(Nc1cccc(O)c1)c1ccc(OCCCN2CCCC2)cc1OCc1ccc(F)cc1 | 5 (≈ 2.32 µg/mL)
C[C@@H](c1ccc(-c2ccc(F)cc2F)cc1)N1CC[C@](CCO)(c2ccc(F)cc2)OC1=O | 2.5 (≈ 1.14 µg/mL)
C[C@@H](c1ccc(-c2ccc(F)cc2F)cc1)N1CC[C@@](CCO)(c2ccc(F)cc2)OC1=O | 5.2 (≈ 2.37 µg/mL)
COc1cccc(NC(=O)Cn2cc(Nc3ncnc4cc(OC)c(OC)cc34)cn2)c1 | 4.4 (≈ 1.91 µg/mL)
COc1cccc(NC(=O)Cn2cc(Oc3ncnc4cc(OC)c(OC)cc34)cn2)c1 | 2.9 (≈ 1.26 µg/mL)
COCCOc1cc2c(Oc3cnn(CC(=O)Nc4cccc(OC)c4)c3)ncnc2cc1OC | 3.1 (≈ 1.49 µg/mL)
O=C(Nc1ccccc1)c1ccc2cccc(O)c2n1 | 6.6 (≈ 1.74 µg/mL)
CN1CCC(Oc2cccc3ncnc(Nc4ccc(OCc5cscn5)c(Cl)c4)c23)CC1 | 4.9 (≈ 2.36 µg/mL)
CN(C(=O)Cc1ccc(-n2cnnn2)cc1)[C@H]1CCN(Cc2ccc(C(F)(F)F)cc2)C[C@H]1F | 8.1 (≈ 3.86 µg/mL)
CCn1cc(NC(=O)Cc2ccc(Oc3ccnc4cc(OC)ccc34)cc2OC)cn1 | 3.2 (≈ 1.38 µg/mL)
CCn1cc(NC(=O)Cc2ccc(Oc3ccnc4ccc(OC)cc34)cc2OC)cn1 | 7.1 (≈ 3.07 µg/mL)
CCc1cc(NC(=O)Cc2ccc(Oc3ccnc4cc(OC)ccc34)cc2OC)no1 | 4.2 (≈ 1.82 µg/mL)
CCc1c[nH]nc1NC(=O)Cc1ccc(Oc2ccnc3cc(OC)ccc23)cc1OC | 7.4 (≈ 3.2 µg/mL)
COc1cc2c(Nc3ccc(NC(=O)c4ccccc4)cc3)ncnc2cc1OCCCN1CCOCC1 | 2.5 (≈ 1.28 µg/mL)
O=C(Nc1ccc(N2CC[S+]([O-])CC2)nc1)c1nnc(Nc2ccccc2F)o1 | 2.5 (≈ 1.04 µg/mL)

Structure (SMILES) | solubility thermodynamic [µM]
CCc1ccc(-c2cc(O)c3ccccc3n2)cc1 | 4 (≈ 0.997 µg/mL)
COc1cc2ncnc(Nc3ccc(F)c(Cl)c3)c2cc1CN1CCC[C@@H]1C(N)=O | 5.1 (≈ 2.19 µg/mL)
CC(C)(C)OC(=O)N1CCN(c2cnc(OCc3ccc(S(C)(=O)=O)cc3)cn2)CC1 | 4.7 (≈ 2.11 µg/mL)
C[C@H]1CN(C(=O)OC(C)(C)C)CCN1c1ncc(OCc2ccc(S(C)(=O)=O)cc2)cn1 | 2.3 (≈ 1.06 µg/mL)
C[C@@H]1CN(c2ncc(OCc3ccc(S(C)(=O)=O)cc3)cn2)CCN1C(=O)OC(C)(C)C | 3.3 (≈ 1.53 µg/mL)
C[C@H]1CN(c2ncc(OCc3ccc(S(C)(=O)=O)cc3)cn2)CCN1C(=O)OC(C)(C)C | 2.2 (≈ 1.02 µg/mL)
C[C@@H]1CN(C(=O)OC(C)(C)C)C[C@H](C)N1c1ncc(OCc2ccc(S(C)(=O)=O)cc2)cn1 | 4.1 (≈ 1.95 µg/mL)
CC(C)(C)OC(=O)N1C[C@@H]2CC[C@H]1CN2c1ncc(OCc2ccc(S(C)(=O)=O)cc2)cn1 | 7.1 (≈ 3.37 µg/mL)
C[C@@H]1CN(C(=O)OC(C)(C)C)CCN1c1ncc(OCC2CCN(S(C)(=O)=O)CC2)cn1 | 5 (≈ 2.35 µg/mL)
C[C@@H]1CN(C(=O)OC(C)(C)C)CCN1c1ncc(OCc2ccc(S(C)(=O)=O)cc2F)cn1 | 2.2 (≈ 1.06 µg/mL)
CCc1cc(Nc2nc(NCc3cc(-c4ccccn4)no3)ncc2Br)n[nH]1 | 3.8 (≈ 1.68 µg/mL)
COc1cc(CCc2cc(Nc3ccnc(NCc4cc(C)on4)n3)n[nH]2)cc(OC)c1 | 4.3 (≈ 1.87 µg/mL)
Oc1cc(-c2ccc3c(c2)OCO3)nc2ccccc12 | 6.2 (≈ 1.64 µg/mL)
Cc1cc(C)cc(-c2[nH]c3sc(C(C)(C)C(=O)N4C5CCC4CC5)cc3c2CCN2CCC(N3CCOCC3)CC2)c1 | 7.2 (≈ 4.24 µg/mL)
OC1CCN(CCOc2n[nH]c3ncnc(Nc4ccc(OCc5cccc(F)c5)c(Cl)c4)c23)CC1 | 4.5 (≈ 2.31 µg/mL)
C[C@H](Oc1cccc2ncnc(Nc3ccc(OCc4ccccn4)c(Cl)c3)c12)C(=O)N(C)C | 2.9 (≈ 1.39 µg/mL)
C[C@@H](Oc1cccc2ncnc(Nc3ccc4c(cnn4Cc4ccccn4)c3)c12)C(N)=O | 4 (≈ 1.76 µg/mL)
CNC(=O)[C@@H](C)Oc1cccc2ncnc(Nc3ccc4c(cnn4Cc4ccccn4)c3)c12 | 6 (≈ 2.72 µg/mL)
C[C@@H](Oc1cccc2ncnc(Nc3ccc4c(cnn4Cc4cccc(F)c4)c3)c12)C(=O)N(C)C | 2.6 (≈ 1.26 µg/mL)
CNC(=O)c1ccc(CN2CCC(c3ccc(C(=O)Nc4ccccc4N)cc3)CC2)cc1 | 4.8 (≈ 2.12 µg/mL)
Cc1ccc(Oc2ccc(Nc3ncnc4cccc(O[C@H](C)C(=O)NCCO)c34)cc2C)cn1 | 4.2 (≈ 1.99 µg/mL)
CO[C@]1(c2cc(F)cc(S(=O)(=O)c3ccc(/C(C)=N/O)cc3)c2)CCO[C@@H](C)C1 | 4.7 (≈ 1.98 µg/mL)
CCc1cc(OCc2ccc(-c3ccccc3-c3nnn[nH]3)cc2)c2ccccc2n1 | 7.8 (≈ 3.18 µg/mL)
O=C(N[C@@H](Cc1ccccc1)C(=O)N1CCC(O)CC1)c1cc2cc(Cl)ccc2[nH]1 | 5.1 (≈ 2.17 µg/mL)

Structure (SMILES) | solubility thermodynamic [µM]
CC(C)n1c2ccccc2c2c(F)c(NC(=O)N3CCOCC3)c(F)cc21 | 4.6 (≈ 1.72 µg/mL)
CCN(C(=O)Cc1ccc(S(C)(=O)=O)cc1)C1CCN(CCC(c2ccccc2)c2ccc(NS(=O)(=O)Cc3ccccc3)cc2)CC1 (stereo unspecified) | 2.3 (≈ 1.58 µg/mL)
Cc1c(Br)sc2nc(O)c(-c3ccccc3)c(O)c12 | 3.9 (≈ 1.31 µg/mL)
COC[C@@H](C(N)=O)N(C)Cc1cc2c(Nc3cccc(Cl)c3F)ncnc2cc1OC | 3.8 (≈ 1.7 µg/mL)
COc1ccc(I)c(Sc2nc3c(N)ncnc3n2CCNCC(C)(C)C)c1 | 4 (≈ 2.05 µg/mL)
COc1cc(Nc2ncnc3[nH]nc(OCCN4CCC(O)CC4)c23)ccc1OCc1cccc(F)c1 | 5.6 (≈ 2.85 µg/mL)
Cc1ccc(Oc2ccc(Nc3ncnc4cccc(O[C@H](C)C(=O)N5CCOCC5)c34)cc2Cl)cn1 | 2.3 (≈ 1.2 µg/mL)
Nc1ccccc1NC(=O)c1ccc(C2CCN(Cc3ccc(C(=O)NC4CC4)cc3)CC2)cc1 | 6.6 (≈ 3.09 µg/mL)
CCCCC(CC)CNC(=O)c1ccc2c(c1)c(Cc1ccc(C(=O)NS(=O)(=O)c3ccccc3C)cc1OC)cn2C (stereo unspecified) | 6.5 (≈ 3.92 µg/mL)
CN(C)C(=O)[C@H](Cc1ccccc1)NC(=O)c1cc2cc(Cl)ccc2[nH]1 | 2.6 (≈ 0.962 µg/mL)
CC(C)Oc1cc(OCCN2CCOCC2)cc2ncnc(Nc3c(Cl)ccc4c3OCO4)c12 | 4.4 (≈ 2.14 µg/mL)
Cc1cc(Nc2ncnc3[nH]nc(OCCN4CCC(O)CC4)c23)ccc1OCc1cccc(F)c1 | 6.8 (≈ 3.35 µg/mL)
COc1cc2ncnc(Nc3cc(O)c(C)cc3F)c2cc1OC | 2.2 (≈ 0.725 µg/mL)
CCOC(=O)c1nn(-c2ccccc2)c(=O)c2c(N)scc12 | 6.2 (≈ 1.96 µg/mL)
COc1cc2ncnc(Nc3ccc(C)c(O)c3)c2cc1OC | 4.4 (≈ 1.37 µg/mL)
CNS(=O)(=O)c1ccc(Nc2nccc(-c3cnc(C)n3C)n2)cc1 | 2.7 (≈ 0.968 µg/mL)
CS(=O)(=O)Nc1cccc(Nc2nccc(Nc3c(Cl)ccc4c3OCO4)n2)c1 | 7.2 (≈ 3.12 µg/mL)
CC1(C)Oc2ncnc(N)c2N=C1c1ccc(C23CCC(C(=O)O)(CC2)CC3)cc1 | 3.2 (≈ 1.3 µg/mL)
COc1cc2nccc(Nc3ccc(Oc4ccccc4)cc3)c2cc1OC | 2.6 (≈ 0.968 µg/mL)
COc1cc2ncnc(Nc3ccc(F)c(Cl)c3)c2cc1OCCCn1ccnc1 | 2.5 (≈ 1.07 µg/mL)
COc1cc(Nc2cc(Oc3ccc(C)nc3C)ccn2)cc(OC)c1OC | 6.8 (≈ 2.59 µg/mL)
NS(=O)(=O)c1ccc(Nc2nccc(-c3cnc4ccccn34)n2)cc1 | 6.5 (≈ 2.38 µg/mL)
Nc1nc(Nc2ccc(Cl)cc2)cc(-c2ccccc2)n1 | 2.2 (≈ 0.653 µg/mL)
O=C(Nc1cc(Cl)cc2c1[nH]c1cnccc12)c1cccnc1 | 3.9 (≈ 1.26 µg/mL)
